Values of other authors as cited in patent US20050215535A1, “Sequential SPRM/progestin treatment” (priority 2004, published 2005).

Legend:
progesterone receptor = molecular target: T1, progesterone receptor (Oryctolagus cuniculus, UniProt P06186); conditions: rabbit model; for McPhail score: scale of 0-4
T1 construct: SPRMs score lower than progesterone in the McPhail bioassay in rabbits; from tissue; host or cells: living rabbit (in vivo; the endometrium as read-out tissue is own knowledge of the McPhail test)
T1 sequence (P06186 1-930): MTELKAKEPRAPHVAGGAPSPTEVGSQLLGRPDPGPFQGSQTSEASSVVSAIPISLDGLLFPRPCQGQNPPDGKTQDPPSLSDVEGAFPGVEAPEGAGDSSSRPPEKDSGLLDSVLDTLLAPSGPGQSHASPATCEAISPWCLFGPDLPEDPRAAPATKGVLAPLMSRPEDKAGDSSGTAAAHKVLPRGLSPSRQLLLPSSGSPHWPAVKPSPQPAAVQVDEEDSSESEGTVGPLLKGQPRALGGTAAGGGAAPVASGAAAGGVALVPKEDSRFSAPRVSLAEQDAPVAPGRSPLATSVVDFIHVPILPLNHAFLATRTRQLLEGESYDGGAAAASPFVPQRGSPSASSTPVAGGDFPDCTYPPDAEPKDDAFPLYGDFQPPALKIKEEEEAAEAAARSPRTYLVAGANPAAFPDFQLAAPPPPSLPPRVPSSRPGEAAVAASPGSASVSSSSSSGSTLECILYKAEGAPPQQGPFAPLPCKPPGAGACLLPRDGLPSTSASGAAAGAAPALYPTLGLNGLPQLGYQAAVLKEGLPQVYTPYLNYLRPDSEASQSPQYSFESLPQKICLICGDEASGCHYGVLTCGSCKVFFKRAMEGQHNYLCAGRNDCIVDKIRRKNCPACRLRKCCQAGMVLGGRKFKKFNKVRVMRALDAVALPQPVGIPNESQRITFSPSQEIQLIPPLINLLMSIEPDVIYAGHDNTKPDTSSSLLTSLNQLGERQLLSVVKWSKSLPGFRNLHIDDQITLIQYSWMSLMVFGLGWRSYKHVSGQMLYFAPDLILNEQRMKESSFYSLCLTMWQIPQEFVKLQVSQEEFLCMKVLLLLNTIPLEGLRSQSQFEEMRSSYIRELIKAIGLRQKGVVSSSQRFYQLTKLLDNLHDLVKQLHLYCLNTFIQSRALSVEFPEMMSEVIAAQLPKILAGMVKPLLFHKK

SMILES	McPhail score (progesterone receptor)	agonist activity in the McPhail test (progesterone receptor)	time to withdrawal bleeding (start of spontaneous menstrual cycle) after stopping the SPRM treatment (premenopausal women; all subjects)	resumption of menstruation after cessation of treatment (premenopausal women; majority of subjects) [days]
CC(=O)[C@H]1CC[C@H]2[C@@H]3CCC4=CC(=O)CC[C@]4(C)[C@H]3CC[C@]12C [progesterone]	4			
CC#C[C@]1(O)CC[C@H]2[C@@H]3CCC4=CC(=O)CCC4=C3[C@@H](c3ccc(N(C)C)cc3)C[C@@]21C [RU486, mifepristone]	less than 0.5	do not show any agonist activity		
COC[C@]1(OC)CC[C@H]2[C@@H]3CCC4=CC(=O)CCC4=C3[C@@H](c3ccc(/C=N/O)cc3)C[C@@]21C [J867]			up to 90 days	≤ 30
CN(C)c1ccc([C@H]2C[C@]3(C)[C@@H](CC[C@]3(O)CCCO)[C@@H]3CCC4=CC(=O)CCC4=C32)cc1 [onapristone]		do not show any agonist activity		
